The test system of experiment [1] is ppMlc (T18/S19) levels in A7R5 cells. Description: A7R5 in-cell ELISA (pMLC). Type of experiment: cell-based, Rat. The conditions noted are these: for inhibition at 10 µM / IC50: Rattus norvegicus, A7R5, A7R5 cells; for inhibition at 10 µM: read-out: pMLC % inh A7R5 @ [conc]. In a few lines:
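Cellular IC50 came from a nonlinear regression fit of ppMlc (T18/S19) signal, read by colorimetric in-cell ELISA on fixed cells. Rat A7R5 aortic smooth muscle cells had been exposed for 90 min to compounds in 9-point 2-fold serial dilution, 24 h after seeding.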

Experiment [2] addresses Recombinant ROCK1 (amino acids 1-535) (Homo sapiens (Human), UniProt Q13464). Nature of the experiment: Z′-Lyte kinase assay, ROCK1. Type of experiment: biochemical. The conditions noted are these: read-out: ROCK1 % inh. @ [conc]; for inhibition at 0.5 µM: 0.5 μM compound. As to the method: Determination of Compound's ROCK Inhibitory Activity In Vitro (Z'Lyte Assay).
Recombinant ROCK1 (amino acids 1-535) and ROCK2 (amino acids 1-552) proteins were purchased from ThermoFisher Scientific. Compound's activities were measured by Z′-lyte kinase kit (ThermoFisher Scientific) and IC50 was calculated
In vitro activities for the compounds were measured with Z′-lyte kinase kit (ThermoFisher Scientific). The percent inhibition rate was calculated by normalizing the kinase activity value obtained with 1 μM compound treatment against DMSO control value and then applied to the formula, [1-(compound/DMSO)]×100%. IC50s were calculated using the nonlinear regression curve fit function of the GraphPad Prism software with kinase activities data measured with 9 points 2-fold serial dilution of compounds treatment. In cell pMLC IC50s were calculated with data obtained from A7R5 cell experiments. A7R5 cells were treated with 9 points 2-fold serial dilution of compounds and ppMlc (T18/S19) levels were determined to calculate cellular IC50 values of the compounds using the nonlinear regression curve fit function of the GraphPad Prism software. NIH3T3 cells stably expressing ACTA2-promoter-driven-luciferase were applied to measure ROCK compounds functional IC50s in cells. Cells were plated in 96 well plates to confluence and treated with 9 points serial dilution of compounds in combination with TGFβ1 for 24 hr. Luciferase activities were measured and compound's IC50s were calculated using the nonlinear regression curve fit function of the GraphPad Prism software.

Experiment [3] concerns the target Recombinant ROCK2 (amino acids 1-552) (Homo sapiens (Human), UniProt O75116). Description: Z′-Lyte kinase assay, ROCK2. The experiment is classed as biochemical. The settings on record: for inhibition at 0.5 µM: 0.5 μM compound. Put shortly: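 IC50s derive from nonlinear curve fits over a 9-point, 2-fold dilution series, with single-point inhibition at 1 μM expressed relative to DMSO. Activity of truncated human ROCK1 (residues 1-535) and ROCK2 (residues 1-552) measured with the Z′-Lyte kinase format.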

Where [4] appears, read: read-out: ROCK2 % inh. @ [conc].

Results on 25 compounds are retold here after patent US11613531B2, “Inhibitors of RHO associated coiled-coil containing protein kinase” (Kadmon Corporation, LLC, priority 2017, dated 2023).

Like-named read-outs stand apart in the source and are kept apart here. Bounds are passed on as bounds.

Sequence of Recombinant ROCK2 (amino acids 1-552) (O75116 1-552): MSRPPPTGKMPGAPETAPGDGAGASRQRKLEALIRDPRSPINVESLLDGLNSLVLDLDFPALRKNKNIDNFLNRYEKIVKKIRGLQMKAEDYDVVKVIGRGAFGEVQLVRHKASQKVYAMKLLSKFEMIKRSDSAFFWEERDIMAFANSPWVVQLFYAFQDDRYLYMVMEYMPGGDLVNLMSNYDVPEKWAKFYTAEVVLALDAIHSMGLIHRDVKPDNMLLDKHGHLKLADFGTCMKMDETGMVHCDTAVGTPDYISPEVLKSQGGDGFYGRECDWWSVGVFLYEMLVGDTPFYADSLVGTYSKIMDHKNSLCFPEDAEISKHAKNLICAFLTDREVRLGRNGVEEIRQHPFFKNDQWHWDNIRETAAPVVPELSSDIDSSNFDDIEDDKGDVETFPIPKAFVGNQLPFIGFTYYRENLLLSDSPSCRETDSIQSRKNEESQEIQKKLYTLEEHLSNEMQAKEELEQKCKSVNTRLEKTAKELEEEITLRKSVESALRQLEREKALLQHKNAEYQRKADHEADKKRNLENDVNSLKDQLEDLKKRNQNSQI
Sequence of Recombinant ROCK1 (amino acids 1-535) (Q13464 1-535): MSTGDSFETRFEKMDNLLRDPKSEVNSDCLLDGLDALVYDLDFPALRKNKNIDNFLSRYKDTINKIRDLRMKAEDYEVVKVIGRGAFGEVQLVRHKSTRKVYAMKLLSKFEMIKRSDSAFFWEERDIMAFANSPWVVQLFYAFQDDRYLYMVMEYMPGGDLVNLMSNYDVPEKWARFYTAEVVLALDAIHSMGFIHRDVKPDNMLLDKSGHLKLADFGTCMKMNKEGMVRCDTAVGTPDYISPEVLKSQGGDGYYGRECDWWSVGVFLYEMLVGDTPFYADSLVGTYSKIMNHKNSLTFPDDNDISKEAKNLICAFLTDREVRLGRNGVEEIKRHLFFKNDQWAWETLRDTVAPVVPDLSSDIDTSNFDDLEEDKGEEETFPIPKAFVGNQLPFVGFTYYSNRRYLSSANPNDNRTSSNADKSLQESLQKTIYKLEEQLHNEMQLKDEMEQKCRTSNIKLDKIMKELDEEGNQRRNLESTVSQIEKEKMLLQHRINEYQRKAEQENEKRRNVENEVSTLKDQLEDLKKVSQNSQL

Consider `Cc1cc(Nc2ccc3[nH]ncc3c2)nc(N2CCCNCC2)n1` [Example 5, N-(2-(1,4-diazepan-1-yl)-6-methylpyrimidin-4-yl)-1H-indazol-5-amine], for which the inhibition at 10 µM in experiment [1] (10 μM compound) worked out at 86%. Besides, the values for the IC50 in experiment [1] (ppMlc (T18/S19)) and in experiment [3] (9 points 2-fold serial dilution) were 63 nM and 54 nM, respectively. For the same compound, the inhibition at 3 µM in experiment [2] (3 μM compound) stood at 98.3%; in experiment [3] (3 μM compound, read-out: ROCK2 % inh. @ [conc]) it was 102%.
Consider `c1cc2[nH]ncc2cc1Nc1nc(N2C3CCC2CNC3)nc2c1COCC2` [Example 46, 2-(3,8-diazabicyclo[3.2.1]octan-8-yl)-N-(1H-indazol-5-yl)-7,8-dihydro-5H-pyrano[4,3-d]pyrimidin-4-amine], for which the inhibition at 0.5 µM in experiment [2] and in experiment [3] (setting [4]) was 98% each time. For the same compound, the IC50 in experiment [3] turned out to be 1 nM.
For `c1cc(-c2cn[nH]c2)ccc1Nc1nc(N2C3CCC2CNC3)nc2c1COCC2` [Example 243, N-(4-(1H-pyrazol-4-yl)phenyl)-2-(3,8-diazabicyclo[3.2.1]octan-8-yl)-7,8-dihydro-5H-pyrano[4,3-d]pyrimidin-4-amine], the results for the inhibition at 0.5 µM in experiment [2] and in experiment [3] (setting [4]) were 67% and 80%, respectively. In addition, the IC50 in experiment [3] worked out at 56 nM.
Turning to `c1cc2c(Nc3ccc4[nH]ncc4c3)nc(N3C4CCC3CNC4)nc2s1` [Example 274, 2-(3,8-diazabicyclo[3.2.1]octan-8-yl)-N-(1H-indazol-5-yl)thieno[2,3-d]pyrimidin-4-amine], the inhibition at 0.5 µM worked out at 101% in experiment [2] and 99% in experiment [3] (setting [4]). Besides, in experiment [3], the IC50 was found to be 0.4 nM.
`c1cc2[nH]ncc2cc1Nc1nc(N2C3CCC2CNC3)nc2c1CNC2` [Example 275, 2-(3,8-diazabicyclo[3.2.1]octan-8-yl)-N-(1H-indazol-5-yl)-6,7-dihydro-5H-pyrrolo[3,4-d]pyrimidin-4-amine]: the figures for the inhibition at 0.5 µM in experiment [2] and in experiment [3] (setting [4]) were 95% and 90%, respectively. Moreover, the IC50 in experiment [3] turned out to be 1.2 nM.
With `c1cc(-c2cn[nH]c2)ccc1Nc1nc(N2C3CCC2CNC3)nc2c1CNC2` [Example 276, N-(4-(1H-pyrazol-4-yl)phenyl)-2-(3,8-diazabicyclo[3.2.1]octan-8-yl)-6,7-dihydro-5H-pyrrolo[3,4-d]pyrimidin-4-amine], the inhibition at 0.5 µM in experiment [2] was 88%; in experiment [3] (setting [4]), 91%. Further, the IC50 in experiment [3] was 2.3 nM.
As to `c1cc(-c2cn[nH]c2)ccc1Nc1nc(N2C3CCC2CNC3)nc2c1COC2` [Example 279, N-(4-(1H-pyrazol-4-yl)phenyl)-2-(3,8-diazabicyclo[3.2.1]octan-8-yl)-5,7-dihydrofuro[3,4-d]pyrimidin-4-amine], the inhibition at 0.5 µM came to 76% in experiment [2] and 85% in experiment [3] (setting [4]). In experiment [3], the half-maximal inhibitory concentration (IC50) stood at 40 nM.
In the same order, the values of `c1cc2nc(N3C4CCC3CNC4)nc(Nc3ccc4[nH]ncc4c3)c2s1` [Example 282, 2-(3,8-diazabicyclo[3.2.1]octan-8-yl)-N-(1H-indazol-5-yl)thieno[3,2-d]pyrimidin-4-amine] are 101%, 99% and below 0.1 nM.
Turning to `CCOC(=O)[C@]12CCNCCC1CN(c1ncc(F)c(Nc3ccc4[nH]ncc4c3)n1)C2` (stereo partly drawn) [Example 322, Ethyl (3αR,8αR)-2-(4-((1H-indazol-5-yl)amino)-5-fluoropyrimidin-2-yl)octahydropyrrolo[3,4-d]azepine-3α(1H)-carboxylate], the inhibition at 0.5 µM in experiment [2] was determined as 17%; in experiment [3] (setting [4]), 29%.
The corresponding values for `CCOC(=O)[C@]12CCNCCC1CN(c1ncc(Cl)c(Nc3ccc4[nH]ncc4c3)n1)C2` (stereo partly drawn) [Example 323, Ethyl (3αR,8αR)-2-(4-((1H-indazol-5-yl)amino)-5-chloropyrimidin-2-yl)octahydropyrrolo[3,4-d]azepine-3α(1H)-carboxylate] are 17% and 29%.
Take `CCOOCC12CNCC1(C(F)(F)F)CN(c1ncc(F)c(Nc3ccc4[nH]ncc4c3)n1)C2` (centres unmarked) [Example 328, N-(2-(3a-((ethylperoxy)methyl)-6a-(trifluoromethyl)hexahydropyrrolo[3,4-c]pyrrol-2(1H)-yl)-5-fluoropyrimidin-4-yl)-1H-indazol-5-amine]: the inhibition at 0.5 µM in experiment [2] worked out at 8%; in experiment [3] (setting [4]) it was 7%.
With `CCOC(=O)C12CNCC1(C(F)(F)F)CN(c1ncc(Cl)c(Nc3ccc4[nH]ncc4c3)n1)C2` (centres unmarked) [Example 338, Ethyl 2-(4-((1H-indazol-5-yl)amino)-5-chloropyrimidin-2-yl)-6a-(trifluoromethyl)hexahydropyrrolo[3,4-c]pyrrole-3a(1H)-carboxylate], the inhibition at 0.5 µM came out at 3% in experiment [2] and 13% in experiment [3] (setting [4]).
Regarding `CCOC(=O)C1NC2CC1CN(c1ncc(F)c(Nc3ccc4[nH]ncc4c3)n1)C2` (centres unmarked) [Example 339, Ethyl 3-(4-((1H-indazol-5-yl)amino)-5-fluoropyrimidin-2-yl)-3,6-diazabicyclo[3.2.1]octane-7-carboxylate], the inhibition at 0.5 µM was found to be 56% in experiment [2] and 75% in experiment [3] (setting [4]). For the same compound, in experiment [3], the IC50 stood at 211 nM.
As for `c1cc(Nc2ccc(-c3cncs3)cc2)nc(N2CCNCC2)n1` [Example 353, 2-(piperazin-1-yl)-N-(4-(thiazol-5-yl)phenyl)pyrimidin-4-amine], the “pMLC % inh A7R5 @ [conc]” value in experiment [1] (A7R5 cells, 10 μM compound) was determined as 25.55%. Moreover, the IC50 in experiment [3] was above 10000 nM.
Regarding `c1cc(Nc2ccc(-c3nnc[nH]3)cc2)nc(N2CCNCC2)n1` [Example 354, N-(4-(4H-1,2,4-triazol-3-yl)phenyl)-2-(piperazin-1-yl)pyrimidin-4-amine], the inhibition at 10 µM in experiment [1] (10 μM compound) came out at 6.4%. Moreover, in experiment [3], the IC50 is above 10000 nM.
In the same order, the values of `Nc1nc(-c2ccc(Nc3ccnc(N4CCNCC4)n3)cc2)cs1` [Example 355, 4-(4-((2-(piperazin-1-yl)pyrimidin-4-yl)amino)phenyl)thiazol-2-amine] are 21.9% and above 10000 nM.
The corresponding values for `Nc1nnc(-c2ccc(Nc3ccnc(N4CCNCC4)n3)cc2)s1` [Example 356, 5-(4-((2-(piperazin-1-yl)pyrimidin-4-yl)amino)phenyl)-1,3,4-thiadiazol-2-amine] are 6.59% and above 10000 nM.
On to `O=c1ccc(-c2ccc(Nc3ccnc(N4CCNCC4)n3)cc2)n[nH]1` [Example 357, 6-(4-((2-(piperazin-1-yl)pyrimidin-4-yl)amino)phenyl)pyridazin-3 (2H)-one], for which the inhibition at 10 µM in experiment [1] (10 μM compound) worked out at 6.35%. For the same compound, the IC50 in experiment [3] was 1900 nM.
As for `c1cc(Nc2ccc(-c3cnco3)cc2)nc(N2CCNCC2)n1` [Example 358, N-(4-(oxazol-5-yl)phenyl)-2-(piperazin-1-yl)pyrimidin-4-amine], the inhibition at 10 µM in experiment [1] (10 μM compound) worked out at 24.3%. For the same compound, the concentration for half-maximal inhibition (IC50) in experiment [3] is above 10000 nM.
In the same order, the values of `Nc1cc(-c2ccc(Nc3ccnc(N4CCNCC4)n3)cc2)ccn1` [Example 359, N-(4-(2-aminopyridin-4-yl)phenyl)-2-(piperazin-1-yl)pyrimidin-4-amine] are 21.8% and above 10000 nM.
In the same order, the values of `O=c1cc(-c2ccc(Nc3ccnc(N4CCNCC4)n3)cc2)cc[nH]1` [Example 360, 4-(4-((2-(piperazin-1-yl)pyrimidin-4-yl)amino)phenyl)pyridin-2(1H)-one] are 1.69% and 5200 nM.
Consider `Nc1ncc(-c2ccc(Nc3ccnc(N4CCNCC4)n3)cc2)s1` [Example 361, 5-(4-((2-(piperazin-1-yl)pyrimidin-4-yl)amino)phenyl)thiazol-2-amine], for which the inhibition at 10 µM in experiment [1] (10 μM compound) was 2.02%. Also, the IC50 in experiment [3] was above 10000 nM.
In the same order, the values of `O=C1Cc2cc(Nc3ccnc(N4CCNCC4)n3)ccc2N1` [Example 365, 5-((2-(piperazin-1-yl)pyrimidin-4-yl)amino)indolin-2-one] are 5.72% and above 10000 nM.
With `c1cc(Nc2ccc(-c3ccnc4[nH]ccc34)cc2)nc(N2CCNCC2)n1` [Example 368, N-(4-(1H-pyrrolo[2,3-b]pyridin-4-yl)phenyl)-2-(piperazin-1-yl)pyrimidin-4-amine], the half-inhibitory concentration (IC50) is 1630 nM in experiment [1] and 1050 nM in experiment [3]. For the same compound, in experiment [1] (10 μM compound), the inhibition at 10 µM was 91.3%.
As to `c1cc(Nc2cnc3[nH]ccc3c2)nc(N2CCCNCC2)n1` [Example 370, N-(2-(1,4-diazepan-1-yl)pyrimidin-4-yl)-1H-pyrrolo[2,3-b]pyridin-5-amine], in experiment [1] (10 μM compound), the inhibition at 10 µM was 5.8%. Moreover, in experiment [3], the IC50 came to 6270 nM.

What is called IC50 is the concentration at which inhibition is half-maximal.
